# According to patent publication US7732437B2, “Use of anti-histaminics for acute reduction of elevated intracranial pressure” (Janssen Pharmaceutica, NV., priority 2001, dated 2010):
# Where two headings read alike, the source gives them in different places. Marks after values point to notes of the source that are not given here.
# How the values were obtained:
# [1] = target: T1, human histamine H1-receptor (Homo sapiens, UniProt P35367); assay: Radioligand binding, histamine H1-receptor, competitive inhibition of [3H]Pyrilamine; settings: CHO-cells transfected with the human histamine H1-receptor, read-out: H1-antagonist activity (pIC50) (converted)
# T1 construct: expressed in transfected cells; host or cells: CHO cells
# Method: Competitive inhibition of [^3H] […] Incubation was done during 150 min at 22° C.
# [2] = system: Sprague-Dawley rats with closed head injury; assay: Closed Head Injury (CHI) model, severe head injury; settings: for Decision (sequential statistical evaluation) / Delta %: average change of the relative ICP from baseline over the treatment period: bolus of 1 mg/kg in 1 min, then infusion of 0.5 mg/kg/min for 44 min; for Effect on ICP: 0.5 mg/kg/min for 10 min, first 15 minutes, 6 rats
# Source text: (§1) A clinically relevant rat model for traumatic brain injury was used to test the compounds according to the invention and the commercially available compounds. […] Trauma was induced in intubated, isoflurane anesthetized (1.5% isoflurane in a mixture of 30% O2 and 70% N2O) Sprague-Dawley rats (380-400 g) stereotaxically positioned on a table mounted on 4 springs. A 400 g steel cylinder, protected with a 9 mm diameter silicon disc, was dropped on the unprotected skull from a height of either 70 cm or 50 cm (respectively ‘severe’ and ‘moderate’ head injury). The impact area was centered between bregma and lamda. ICP was recorded using a Codman microsensor probe inserted in the parietal cortex. […] The severe head injury mode was used for the evaluation of pharmacological effects immediately after trauma (screening procedure). […] In pharmacological studies, animals with a pathological ICP between 12.5 and 35 mm Hg were included. The changes in ICP, mean arterial blood pressure (MABP) and cerebral perfusion pressure CPP (=MABP—CPP) were expressed as percentage of the initial value at onset of the treatment.
# (§2) On a weekly base, 4 treated groups of 3 rats were compared with 3 saline treated animals. Since conventional statistical methods require a larger amount of animals, a sequential procedure was used. Sequential methods operate in different stages. At each stage, a group of animals was selected as homogeneous as possible. Animals were randomly allocated to either drugs or saline. […] Given the biological relevant level of activity that must be detected, the expected fraction of false positive and negative results was known and fixed. A sequential two-sample grouped rank test was used.
# (§3) Treatment was started at 20 min after severe head injury and involved administering a dose of 0.5 mg/kg/min during 10 minutes, followed by 0.1 mg/kg/min during 50 min.
# (§4) Ranitidine was infused for 6 min at a dose of 2 mg/kg/min in the rat CHI-model after inflicting severe head injury. Solvent (NaCl+H2T) was given at the same rate. In each group, 6 rats were treated. […] The percentage of reduction are calculated as % change of the ICP recorded at the onset of the treatment and at the end of the infusion.
# (§5) A number of commercially available H1- and H2-antagonists was infused for 10 min at a dose of 0.5 mg/kg/min in the rat CHI-model after inflicting severe head injury. Solvent (NaCl+H2T) was given at the same rate. In each group, 6 rats were treated.
# histamine H2-receptor = target: T2, histamine H2-receptor (Cavia porcellus, UniProt P47747); assay: Radioligand binding, histamine H2-receptor, guinea pig striatum cells, [125I]APT; settings: [125I]APT 0.1 nM, 150 min at 22° C., read-out: H2-antagonist activity (pIC50) (converted)
# T2 construct: using guinea pig striatum cells and [^125I]APT as the radioligand; from tissue; host or cells: guinea pig striatum
# [3] = system: Sprague-Dawley rats with closed head injury; settings: for effect on the lowering of the blood pressure: rat, in vivo
# Source text: as §1, §2, §3, §4, §5
# non-traumatised rats = assay: ICP and blood pressure in non-traumatized rats; format: in vivo, rat; settings: for effect on ICP, MABP and CPP in non-traumatised rats: i.v. 0.5 mg/kg/min 10 minutes, then 0.1 mg/kg/min 50 min, anaesthetised; for effects of H2-agonists (ICP, blood pressure): dimaprit 0.5 mg/kg/min for 10 minutes, impromidine increasing doses up to 3.75 mg/kg/hour; for effects of H2-agonists on blood pressure and ICP, high dose: dimaprit 2 mg/kg/min for 10 minutes, impromidine bolus of 0.5 mg/kg
# Method: For comparison, two commercially available H2-agonists (dimaprit and impromidine) were also tested by infusion into non-traumatized rats, using a dose of 0.5 mg/kg/min for 10 minutes for dimaprit and increasing doses up to 3.75 mg/kg/hour for impromidine.
# Rats The effect of Compound 2, Compound 1 and Racemate (comp. 1 and comp. 2) on ICP, MABP and CPP was tested in anaesthetised non-traumatised rats. […] Conclusion
# [4] = system: Sprague-Dawley rats with closed head injury; assay: Closed Head Injury (CHI) model, moderate head injury, treatment 24 h after trauma; format: in vivo, rat; settings: for effect on saturation of brain haemoglobin with oxygen HbSat (NIRS) / effect on the redox state of CytOx (NIRS) / effect on total brain haemoglobin concentration [HbTot] (NIRS): i.v. 0.5 mg/kg.min 10 min, then 0.1 mg/kg.min 45 min, 24 h after moderate head injury
# Source text: The impact area was centered between bregma and lamda.
# Near-infrared spectroscopy (NIRS) of the rat brain ‘in vivo’ allows to quantify non-invasively saturation of brain haemoglobin with oxygen (HbSat) and total brain haemoglobin concentration ([HbTot]). The latter is a measure for cerebral blood volume (CBV). Changes in the redox state of the mitochondrial enzyme cytochrome oxidase (CytOx), an indicator for tissue oxygenation, can also be monitored.
# HbSat is not affected by compound 1 and the racemate (Comp. 1 and Comp. 2).
# The effects of treatment with Compound 2 (i.v. infusion at a dose of 0.1 mg/kg.min during 30 min) at 24 h after moderate trauma were studied using different anesthetics (isoflurane, chloralhydrate, pentobarbital). When chloralhydrate (400 mg/kg i.p) is used as anesthetic, ICP decreases to 75% of initial value and MABP gradually increases to 110% of initial value (medians, n=6). […] Barbiturates also reduce the ICP and an important additional effect can be obtained with the compound.
# [5] = system: traumaticaly induced brain edema; settings: prior treatment; cited from earlier work
# [6] = 0.5 mg/kg/min 10 min, then 0.1 mg/kg/min 50 min, start 20 min after severe CHI, n = 10
# [7] = continuous infusion of 0.1 mg/kg.min
# [8] = i.v. 0.1 mg/kg.min 30 min, chloralhydrate 400 mg/kg i.p. anesthesia, n=6
# [9] = i.v. 0.1 mg/kg.min 30 min, pentobarbital 60 mg/kg i.p. anesthesia, n=6
# T1 sequence (P35367 whole entry): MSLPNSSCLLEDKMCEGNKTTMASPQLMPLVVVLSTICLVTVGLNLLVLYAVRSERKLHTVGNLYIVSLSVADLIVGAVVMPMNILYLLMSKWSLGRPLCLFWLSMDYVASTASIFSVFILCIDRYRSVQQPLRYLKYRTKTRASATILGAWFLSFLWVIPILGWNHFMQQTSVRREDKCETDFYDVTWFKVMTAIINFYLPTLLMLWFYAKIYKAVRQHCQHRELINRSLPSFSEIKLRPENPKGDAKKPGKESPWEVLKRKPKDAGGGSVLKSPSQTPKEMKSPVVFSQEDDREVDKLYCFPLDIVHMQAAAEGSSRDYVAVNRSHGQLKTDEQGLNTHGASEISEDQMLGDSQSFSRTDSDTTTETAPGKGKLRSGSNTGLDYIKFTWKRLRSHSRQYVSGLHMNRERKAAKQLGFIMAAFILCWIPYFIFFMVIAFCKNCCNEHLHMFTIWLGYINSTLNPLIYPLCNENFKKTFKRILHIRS
# T2 sequence (P47747 whole entry): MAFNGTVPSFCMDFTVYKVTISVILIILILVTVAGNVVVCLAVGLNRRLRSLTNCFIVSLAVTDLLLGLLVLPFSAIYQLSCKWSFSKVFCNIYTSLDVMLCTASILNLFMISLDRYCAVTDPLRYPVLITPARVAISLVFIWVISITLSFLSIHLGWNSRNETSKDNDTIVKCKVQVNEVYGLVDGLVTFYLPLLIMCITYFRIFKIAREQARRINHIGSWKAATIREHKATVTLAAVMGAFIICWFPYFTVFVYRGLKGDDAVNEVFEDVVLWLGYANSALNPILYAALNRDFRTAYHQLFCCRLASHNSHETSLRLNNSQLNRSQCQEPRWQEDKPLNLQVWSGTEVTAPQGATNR
smiles,measurement,setting,value
"Cc1nc2n(C)c3ccccc3n2c(=O)c1CCN1CCC(C2c3ccccc3CCn3c2nc2ccccc23)CC1Cc1ccccc1 (single isomer, unassigned) [Compound 17]",IC50,[1],631 nM
same,Decision (sequential statistical evaluation),[2],active
same,Delta %: average change of the relative ICP from baseline over the treatment period,[2],−8.9%
"CNC(=C[N+](=O)[O-])NCCSCc1ccc(CN(C)C)o1 [Ranitidine, ranitidine, reference compound]",IC50,histamine H2-receptor,3160 nM
Cc1nc2n(C)c3ccccc3n2c(=O)c1CCN1CCC(C2c3ccccc3CCn3c2nc2ccccc23)CC1Cc1ccccc1 (stereo not drawn) [Compound 30],IC50,[1],794 nM
same,Decision (sequential statistical evaluation),[2],active
same,Delta %: average change of the relative ICP from baseline over the treatment period,[2],−9.3%
"CC(CN1c2ccccc2Sc2ccccc21)N(C)C (stereo not drawn) [Promethazine, reference compound]",effect on the lowering of the blood pressure,[3],no or little effect
same,Effect on ICP,[2]; severe head injury,−
"Cc1nc2n(C)c3ccccc3n2c(=O)c1CCN1CCC(C2c3ccccc3CCn3c2nc2ccccc23)CC1Cc1ccccc1 (single isomer, unassigned) [Compound 47]",IC50,[1],398 nM
same,Decision (sequential statistical evaluation),[2],active
same,Delta %: average change of the relative ICP from baseline over the treatment period,[2],−12.0%
"CN(C)CCC(c1ccc(Cl)cc1)c1ccccn1 (stereo not drawn) [Chlorpheniramine, reference compound]",effect on the lowering of the blood pressure,[3],no or little effect
same,Effect on ICP,[2]; severe head injury,−
Cc1nc2n(C)c3ccccc3n2c(=O)c1CCN1CCC(C2c3ccccc3CCn3c2nc2ccccc23)CC1Cc1ccccc1 (racemic) [Compound 15],IC50,[1],316 nM
same,Decision (sequential statistical evaluation),[2],active
same,Delta %: average change of the relative ICP from baseline over the treatment period,[2],−23.3%
"Cc1nc2n(C)c3ccccc3n2c(=O)c1CCN1CCC(C2c3ccccc3CCn3c2nc2ccccc23)CC1Cc1ccccc1 (single isomer, unassigned) [Compound 2, pyrimido[1,2-a]benzimidazol-4(10H)-one, 3-[2-[4-(11 ,12-dihydro-6H-benzimidazo[2,1-b][3]benzazepin-6-yl)-2-(phenylmethyl)-1-piperidinyl]ethyl]-2,10-dimethyl (E)-2-butenedioate (2:3) hydrate (1:1)]",IC50,[1],794 nM
same,"CPP (%), average change over treatment period, median (95% C.I.)",[2]; [6],24.2 (0.9; 43.6)* %
same,"ETCO2 (%), average change over treatment period, median (95% C.I.)",[2]; [6],−4.4 (−8.9; 2.3)* %
same,"Heart rate(%), average change over treatment period, median (95% C.I.)",[2]; [6],−9.6 (−21.8; 0.7) %
same,"ICP (%), average change over treatment period, % change of initial value, median (95% C.I.)",[2]; [6],−15.3 (−20.0; −9.5)* %
same,"MABP (%), average change over treatment period, median (95% C.I.)",[2]; [6],18.8 (−2.0; 31.0)* %
same,"Resp. rate(%), average change over treatment period, median (95% C.I.)",[2]; [6],6.6 (−1.3; 14.6) %
same,increases in MABP observed,[2]; [7],≤ 20%
same,maximal reduction of ICP versus infusion preceded by loading dose,[2]; [7],comparable
same,time required to obtain maximal reduction of ICP (median),[2]; [7],30 min
same,median MABP increase at the end of the infusion,"[2]; continuous infusion of 0.1 mg/kg.min, n=6",9%
same,"effect on ICP, MABP and CPP in non-traumatised rats",non-traumatised rats,comparable with those obtained in the traumatized animals
same,"ICP, % of initial value (median)",[4]; [8],75 % of initial value
same,"MABP, % of initial value (median)",[4]; [8],110 % of initial value
same,"ICP, % of initial value (median)",[4]; [9],64 % of initial value
same,"MABP, % of initial value at the end of the infusion (median)",[4]; [9],141 % of initial value
same,effect on saturation of brain haemoglobin with oxygen HbSat (NIRS),[4],small but statistically significant reduction
same,effect on the redox state of CytOx (NIRS),[4],do not have an effect
same,effect on total brain haemoglobin concentration [HbTot] (NIRS),[4],do not have a significant effect
"CN/C(=N/CCSCc1nc[nH]c1C)NC#N [Cimetidine, cimetidine]",increased brain water content and elevated plasma and brain histamine levels,[5],prevented
COc1ccc(CN(CCN(C)C)c2ccccn2)cc1 [Pyrilamine],effect on the lowering of the blood pressure,[3],no or little effect
same,increased brain water content and elevated plasma and brain histamine levels,[5],failed to reduce the increased brain water content
"Cc1nc2n(C)c3ccccc3n2c(=O)c1CCN1CCC(C2c3ccccc3CCn3c2nc2ccccc23)CC1Cc1ccccc1 (racemic) [Racemate (comp. 1 and comp. 2), pyrimido[1,2-a]benzimidazol-4(10H)-one, 3-[2-[4-(11 ,12-dihydro-6H-benzimidazo[2,1-b][3]benzazepin-6-yl)-2-(phenylmethyl)-1-piperidinyl]ethyl]-2,10-dimethyl (E)-2-butenedioate (2:3) hydrate (1:1)]","CPP (%), average change over treatment period, median (95% C.I.)",[2]; [6],7.5 (−2.4; 15.5) %
same,"ETCO2 (%), average change over treatment period, median (95% C.I.)",[2]; [6],2.4 (−7.8; 3.8) %
same,"ICP (%), average change over treatment period, % change of initial value, median (95% C.I.)",[2]; [6],−19.1 (−24.9; −10.8)* %
same,"MABP (%), average change over treatment period, median (95% C.I.)",[2]; [6],0.6 (−5.1; 8.5) %
same,"Resp. rate(%), average change over treatment period, median (95% C.I.)",[2]; [6],9.6 (3.0; 14.8) %
same,"effect on ICP, MABP and CPP in non-traumatised rats",non-traumatised rats,comparable with those obtained in the traumatized animals
same,effect on saturation of brain haemoglobin with oxygen HbSat (NIRS),[4],not affected
same,effect on the redox state of CytOx (NIRS),[4],do not have an effect
same,effect on total brain haemoglobin concentration [HbTot] (NIRS),[4],do not have a significant effect
"c1cc(CN2CCCCC2)cc(OCCCNc2nc3ccccc3s2)c1 [Zolantidine, reference compound]",effect on the lowering of the blood pressure,[3],no or little effect
same,Effect on ICP,[2]; severe head injury,−
Cc1nc[nH]c1CSCCN=C(N)NCCCc1cnc[nH]1 [impromidine],"effects of H2-agonists (ICP, blood pressure)",non-traumatised rats,No effects were observed
same,"effects of H2-agonists on blood pressure and ICP, high dose",non-traumatised rats,"blood pressure and ICP were observed to drop, but recovered after the treatment"
OCCOCCN1CCN(C(c2ccccc2)c2ccc(Cl)cc2)CC1 (stereo not drawn) [Hydroxyzine],Effect on ICP,"[3]; iv, 0.5 mg/kg, 0.25 h",−
CN(C)CCCSC(=N)N [dimaprit],"effects of H2-agonists (ICP, blood pressure)",non-traumatised rats,No effects were observed
same,"effects of H2-agonists on blood pressure and ICP, high dose",non-traumatised rats,"blood pressure and ICP were observed to drop, but recovered after the treatment"
"CN(C)CCOC(c1ccccc1)c1ccccc1 [Diphenhydramine, diphenhydramine, reference compound]",effect on the lowering of the blood pressure,[3],no or little effect
same,reduction in ICP,"[2]; 1 mg/kg/min for 10 min, severe head injury, three rats",34%
CCOC(=O)Cn1c2ccccc2n2c(=O)c(CCN3CCC(C4c5ccccc5CCn5c4nc4ccccc45)CC3Cc3ccccc3)c(C)nc12 (stereo not drawn) [Compound 32],IC50,[1],398 nM
same,Decision (sequential statistical evaluation),[2],active
same,Delta %: average change of the relative ICP from baseline over the treatment period,[2],−13.9%
